Experimental findings from patent US9073876B2, “Flap modulators” (JANSSEN PHARMACEUTICA NV, priority 2013, dated 2015) are described below.

Assay [1] concerns leukotriene pathway in human whole blood (LTB4 levels). Description: Human whole blood assay (LTB4). The following applies: human whole blood diluted 1:1 in RPMI, stimulated with calcium ionophore A23187; single replicate. In kind it is cell-based. The method in brief:
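Single-replicate data from at least one healthy donor: compound pre-incubated 15 min at 37° Celsius in 1:1 RPMI-diluted heparinised blood, followed by 30 min calcium ionophore A23187 (7 μg/mL) challenge at 37° Celsius. LTB4 in plasma quantified by kit; IC50 via 4-parameter equation.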

The next assay concerns the target human FLAP (Homo sapiens (Human), UniProt P20292). Briefly: FLAP binding assay (HTRF). The following applies: human FLAP-containing membranes, HTRF format; average of two assay plates, duplicates; read-out: FLAP Binding wild type HTRF Ki. The method in brief: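 Binding of compounds to FLAP read out as HTRF ratio. Values are the mean of two assay plates, each sample run in duplicate per plate.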
(In TR-FRET formats the signal depends on donor and acceptor labels being close together.)

Usually IC50 stands for the concentration that gives 50% inhibition. As usually defined, the Ki is the dissociation constant of the complex between target and ligand, obtained from inhibition or displacement.

Where a name gives a salt, the structure may show the parent alone.

Chain of human FLAP (P20292 whole entry): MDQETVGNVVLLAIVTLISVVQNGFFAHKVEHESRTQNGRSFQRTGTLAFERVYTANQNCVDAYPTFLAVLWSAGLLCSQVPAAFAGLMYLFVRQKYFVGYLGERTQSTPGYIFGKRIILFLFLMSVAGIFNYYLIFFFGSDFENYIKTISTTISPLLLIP

For `COC(=O)c1ccc(Oc2c(C3CCC3)ccc(-c3cnc(N)cn3)c2F)nc1` [Example 107, Methyl 6-[3-(5-aminopyrazin-2-yl)-6-cyclobutyl-2-fluorophenoxy]pyridine-3-carboxylate], the IC50 in assay [1] is 177 nM. For the same compound, the Ki on human FLAP amounted to 6.9 nM.
In the same order, the values of `CC(C)(C)c1ccc(-c2cnc(N)nc2)c(F)c1Oc1nccc(N)n1` [Example 209, 5-{3-[(4-Aminopyrimidin-2-yl)oxy]-4-tert-butyl-2-fluorophenyl}pyrimidin-2-amine] are 51.1 nM and 23.3 nM.
`Nc1cnc(-c2ccc(C3CCC3)c(OCC(O)CNc3cc(N)ncn3)c2F)cn1` (racemic) [Example 59, racemic 1-(3-(5-Aminopyrazin-2-yl)-6-cyclobutyl-2-fluorophenoxy)-3-((6-aminopyrimidin-4-yl)amino)propan-2-ol]: the IC50 in assay [1] was 1540 nM. In addition, at human FLAP, the Ki turned out to be 327 nM.
Taken in the same sequence, the figures for `Nc1cnc(-c2ccc(C3CCC3)c(OCc3ccc(S(N)(=O)=O)cc3)c2F)cn1` [Example 26, 4-{[3-(5-Aminopyrazin-2-yl)-6-cyclobutyl-2-fluoro-phenoxy]methyl}benzenesulfonamide] were greater than 10000 nM and 20 nM.
In the same order, the values of `N#Cc1cccc(COc2c(C3CCC3)ccc(-c3cnc(N)cn3)c2F)c1` [Example 16, 3-{[3-(5-Aminopyrazin-2-yl)-6-cyclobutyl-2-fluorophenoxy]methyl}benzonitrile] are 467 nM and 98 nM.
With `NC(=O)c1ccc(COc2c(C3CCC3)ccc(-c3cnc4c(c3)OCCN4)c2F)cc1` [Example 193, 4-{[6-Cyclobutyl-3-(3,4-dihydro-2H-pyrido[3,2-b][1,4]oxazin-7-yl)-2-fluorophenoxy]-methyl}-benzamide], the IC50 in assay [1] was 769 nM. Moreover, the Ki at human FLAP is 3.7 nM.
In the same order, the values of `Cn1ccc(COc2c(C3CCC3)ccc(-c3cnc(N)cn3)c2F)n1` [Example 47, 5-{4-Cyclobutyl-2-fluoro-3-[(1-methyl-1H-pyrazol-3-yl)methoxy]phenyl}pyrazin-2-amine] are 300 nM and 42 nM.
In the same order, the values of `Cc1nc(N)cc(Oc2c(C3CCC3)ccc(-c3cnc(N)cn3)c2F)n1` [Example 140, 6-[3-(5-Aminopyrazin-2-yl)-6-cyclobutyl-2-fluorophenoxy]-2-methylpyrimidin-4-amine trifluoroacetate salt] are 11.7 nM and 1.3 nM.
Taken in the same sequence, the figures for `CS(=O)(=O)c1ccc(Oc2c(C3CCC3)ccc(-c3cnc(N)cn3)c2F)cc1C(F)(F)F` [Example 133, 5-{4-Cyclobutyl-2-fluoro-3-[4-(methylsulfonyl)-3-(trifluoro-methyl)phenoxy]phenyl}pyrazin-2-amine] were 79.6 nM and 10.2 nM.
On to `Nc1cnc(-c2ccc(C3CCC3)c(Oc3nccc(N)n3)c2F)cn1` [Example 119, 2-[3-(5-Aminopyrazin-2-yl)-6-cyclobutyl-2-fluorophenoxy]pyrimidin-4-amine], for which the IC50 in assay [1] amounted to 26.3 nM. Also, the Ki on human FLAP came out at 6 nM.
In the same order, the values of `CC(C)(C)OC(=O)N1CC(COc2c(C3CCC3)ccc(-c3cnc(N)cn3)c2F)C1` [Example 246, tert-butyl-3-((3-(5-aminopyrazin-2-yl)-6-cyclobutyl-2-fluorophenoxy)-methyl)azetidine-1-carboxylate] are 1590 nM and 98.6 nM.
As for `Oc1c(C2CCC2)ccc(-c2cnc3c(c2)CCN3)c1F` [Example 199, 6-Cyclobutyl-3-(2,3-dihydro-1H-pyrrolo[2,3-b]pyridin-5-yl)-2-fluorophenol], in assay [1], the IC50 is 1060 nM. In addition, the Ki at human FLAP came out at 24.2 nM.
Take `N#CCOc1c(C2CCC2)ccc(-c2cnc(N)cn2)c1F` [Example 276, [3-(5-Aminopyrazin-2-yl)-6-cyclobutyl-2-fluorophenoxy]acetonitrile]: in assay [1], the 50% inhibitory concentration (IC50) was found to be 406 nM. For the same compound, the Ki on human FLAP was 39.2 nM.
Taken in the same sequence, the figures for `COc1ccnc(Oc2c(C3CCC3)ccc(-c3cnc(N)cn3)c2F)n1` [Example 93, 5-{4-Cyclobutyl-2-fluoro-3-[(4-methoxypyrimidin-2-yl)oxy]phenyl}pyrazin-2-amine] were 30.8 nM and 3 nM.
For `Oc1c(C2CCC2)ccc(-c2cnc3[nH]ccc3c2)c1F` [Example 220, 6-cyclobutyl-2-fluoro-3-(1H-pyrrolo[2,3-b]pyridin-5-yl)phenol], in assay [1], the IC50 was 1120 nM. The Ki on human FLAP is 21.8 nM.
On to `Nc1cnc(-c2ccc(C3CCC3)c(OCC(O)Cn3cncn3)c2F)cn1` (racemic) [Example 62, racemic 1-(3-(5-Aminopyrazin-2-yl)-6-cyclobutyl-2-fluorophenoxy)-3-(1H-1,2,4-triazol-1-yl)propan-2-ol], for which, in assay [1], the IC50 came to 832 nM. Moreover, the Ki on human FLAP was 315 nM.
Taken in the same sequence, the figures for `Nc1ccnc(Oc2c(C3CCC3)ccc(-c3cnc(N)nc3)c2F)n1` [Example 161, 5-{3-[(4-Aminopyrimidin-2-yl)oxy]-4-cyclobutyl-2-fluorophenyl}pyrimidin-2-amine] were 88 nM and 22.2 nM.
`Nc1cc(Oc2c(C3CCC3)ccc(-c3cnc(N)nc3)c2F)ncn1` [Example 164, 5-{3-[(6-Aminopyrimidin-4-yl)oxy]-4-cyclobutyl-2-fluorophenyl}pyrimidin-2-amine]: the IC50 in assay [1] amounted to 118 nM. For the same compound, the Ki at human FLAP amounted to 36.8 nM.
Taken in the same sequence, the figures for `COc1c(C2CCC2)ccc(-c2cnc(N)c(C#N)n2)c1F` [Example 218, 3-amino-6-(4-cyclobutyl-2-fluoro-3-methoxyphenyl)-pyrazine-2-carbonitrile] were greater than 5000 nM and 77.3 nM.
`Nc1cnc(-c2ccc(C3CCC3)c(Oc3cc(N4CCC4)ncn3)c2F)cn1` [Example 138, 5-{3-[(6-Azetidin-1-ylpyrimidin-4-yl)oxy]-4-cyclobutyl-2-fluorophenyl}pyrazin-2-amine trifluoroacetate salt]: the concentration for half-maximal inhibition (IC50) in assay [1] is 70.3 nM. On human FLAP, the Ki worked out at 5.5 nM.
In the same order, the values of `CC(C)(C)Cc1ccc(-c2cnc(N)cn2)c(F)c1Oc1ncccn1` [Example 324, 5-(2-Fluoro-4-neopentyl-3-(pyrimidin-2-yloxy)phenyl)pyrazin-2-amine] are 260 nM and 73.8 nM.
Consider `N#Cc1cc(Oc2c(C3CCC3)ccc(-c3cnc(N)cn3)c2F)ccn1` [Example 109, 4-[3-(5-Aminopyrazin-2-yl)-6-cyclobutyl-2-fluorophenoxy]pyridine-2-carbonitrile], for which the IC50 in assay [1] came out at 308 nM. Moreover, the Ki on human FLAP worked out at 8.9 nM.
In the case of `Nc1cnc(-c2ccc(C3CCC3)c(OCCN3C(=O)c4ccccc4C3=O)c2F)cn1` [Example 293, 2-{2-[3-(5-aminopyrazin-2-yl)-6-cyclobutyl-2-fluorophenoxy]ethyl}-1H-isoindole-1,3(2H)-dione], the IC50 in assay [1] was found to be 1000 nM. Further, the Ki at human FLAP was 16.5 nM.
Regarding `Nc1cnc(-c2ccc(C3CCC3)c(Oc3cccc(C(F)(F)F)n3)c2F)cn1` [Example 102, 5-(4-Cyclobutyl-2-fluoro-3-{[6-(trifluoromethyl)pyridin-2-yl]oxy}phenyl)pyrazin-2-amine], the IC50 in assay [1] worked out at 103 nM. Besides, at human FLAP, the Ki worked out at 2 nM.
In the same order, the values of `CS(=O)(=O)NCCOc1c(C2CCC2)ccc(-c2cnc(N)cn2)c1F` [Example 243, N-(2-(3-(5-Aminopyrazin-2-yl)-6-cyclobutyl-2-fluorophenoxy)-ethyl)-methane-sulfonamide] are 859 nM and 236 nM.
Taken in the same sequence, the figures for `Nc1cnc(-c2ccc(C3CCC3)c(OCc3ccc(-c4nnn[nH]4)cc3)c2F)cn1` [Example 20, 5-(4-Cyclobutyl-2-fluoro-3-{[4-(1H-tetrazol-5-yl)benzyl]oxy}phenyl)pyrazin-2-amine] were greater than 10000 nM and 5 nM.
In the same order, the values of `COc1cc(Oc2c(C3CCC3)ccc(-c3cnc4c(c3)OCCN4)c2F)ncn1` [Example 227, 7-(4-cyclobutyl-2-fluoro-3-((6-methoxypyrimidin-4-yl)oxy)phenyl)-3,4-dihydro-2H-pyrido[3,2-b][1,4]oxazine] are 332 nM and 8.5 nM.
For the compound `COc1cc(Oc2c(C3CCC3)ccc(-c3cnc4[nH]ccc4n3)c2F)ncn1` [Example 229, 2-(4-cyclobutyl-2-fluoro-3-((6-methoxypyrimidin-4-yl)oxy)phenyl)-5H-pyrrolo[2,3-b]pyrazine], the IC50 in assay [1] is 408 nM. For the same compound, at human FLAP, the Ki stood at 7.7 nM.
Taken in the same sequence, the figures for `Nc1cnc(-c2ccc(C3CCC3)c(OCc3cccc(-c4nnn[nH]4)c3)c2F)cn1` [Example 21, 5-(4-Cyclobutyl-2-fluoro-3-{[3-(1H-tetrazol-5-yl)benzyl]oxy}phenyl)pyrazin-2-amine] were 4130 nM and 8 nM.
In the same order, the values of `Cc1ccc(COc2c(C3CCC3)ccc(-c3cnc(N)cn3)c2F)cc1C` [Example 41, 5-{4-Cyclobutyl-3-[(3,4-dimethylbenzyl)oxy]-2-fluorophenyl}pyrazin-2-amine] are 1350 nM and 250 nM.
For the compound `Nc1cnc(-c2ccc(C3CCC3)c(OCCN3CCOCC3)c2F)cn1` [Example 244, 5-(4-Cyclobutyl-2-fluoro-3-(2-morpholinoethoxy)phenyl)pyrazin-2-amine], the IC50 in assay [1] came to 1820 nM. Also, the Ki on human FLAP was 462 nM.
On to `Nc1cnc(-c2ccc(C3CCC3)c(Oc3cccnn3)c2F)cn1` [Example 277, 5-[4-Cyclobutyl-2-fluoro-3-(pyridazin-3-yloxy)phenyl]pyrazin-2-amine], for which the IC50 in assay [1] amounted to 135 nM. Moreover, the Ki at human FLAP amounted to 17.7 nM.
Taken in the same sequence, the figures for `CNc1nc(C)cc(Oc2c(C3CCC3)ccc(-c3cnc(N)cn3)c2F)n1` [Example 269, 4-[3-(5-Aminopyrazin-2-yl)-6-cyclobutyl-2-fluorophenoxy]-N,6-dimethylpyrimidin-2-amine] were 15.1 nM and 0.9 nM.
